The target of one test is T1, human Nav1.7 (Homo sapiens, UniProt Q15858).
T1 construct: expressed in transfected cells
Description: PatchXpress sodium current measurement, inactivated state block, Nav1.7. Type of test: cell-based. Particulars: channels stably expressed in HEK 293 cells, double-pulse protocol, 22° C., read-out: potency for the Nav 1.7 sodium ion channel (1.7=). Summed up: (§1)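 HEK293 cells stably expressing channel; automated patch clamp at 22 °C, double-pulse protocol: hold 20 mV below V½ inactivation, 8000 ms prepulse 7 mV above V½, 2 ms step to −120 mV, 20 ms test pulse to −20 mV. CsF-based internal (pH 7.3), NMDG/40 mM NaCl external (pH 7.5). Rundown-corrected % inhibition (≥2 concentrations) fitted to Hill equation for IC50.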

The next test addresses T2, human Nav1.5 (Homo sapiens, UniProt Q14524).
T2 construct: expressed in transfected cells
Kind of test: PatchXpress sodium current measurement, inactivated state block, Nav1.5. It counts as cell-based. Particulars: determined by PatchXpress measurement, HEK 293 cells. Summed up:
as §1

T2 sequence (Q14524 whole entry): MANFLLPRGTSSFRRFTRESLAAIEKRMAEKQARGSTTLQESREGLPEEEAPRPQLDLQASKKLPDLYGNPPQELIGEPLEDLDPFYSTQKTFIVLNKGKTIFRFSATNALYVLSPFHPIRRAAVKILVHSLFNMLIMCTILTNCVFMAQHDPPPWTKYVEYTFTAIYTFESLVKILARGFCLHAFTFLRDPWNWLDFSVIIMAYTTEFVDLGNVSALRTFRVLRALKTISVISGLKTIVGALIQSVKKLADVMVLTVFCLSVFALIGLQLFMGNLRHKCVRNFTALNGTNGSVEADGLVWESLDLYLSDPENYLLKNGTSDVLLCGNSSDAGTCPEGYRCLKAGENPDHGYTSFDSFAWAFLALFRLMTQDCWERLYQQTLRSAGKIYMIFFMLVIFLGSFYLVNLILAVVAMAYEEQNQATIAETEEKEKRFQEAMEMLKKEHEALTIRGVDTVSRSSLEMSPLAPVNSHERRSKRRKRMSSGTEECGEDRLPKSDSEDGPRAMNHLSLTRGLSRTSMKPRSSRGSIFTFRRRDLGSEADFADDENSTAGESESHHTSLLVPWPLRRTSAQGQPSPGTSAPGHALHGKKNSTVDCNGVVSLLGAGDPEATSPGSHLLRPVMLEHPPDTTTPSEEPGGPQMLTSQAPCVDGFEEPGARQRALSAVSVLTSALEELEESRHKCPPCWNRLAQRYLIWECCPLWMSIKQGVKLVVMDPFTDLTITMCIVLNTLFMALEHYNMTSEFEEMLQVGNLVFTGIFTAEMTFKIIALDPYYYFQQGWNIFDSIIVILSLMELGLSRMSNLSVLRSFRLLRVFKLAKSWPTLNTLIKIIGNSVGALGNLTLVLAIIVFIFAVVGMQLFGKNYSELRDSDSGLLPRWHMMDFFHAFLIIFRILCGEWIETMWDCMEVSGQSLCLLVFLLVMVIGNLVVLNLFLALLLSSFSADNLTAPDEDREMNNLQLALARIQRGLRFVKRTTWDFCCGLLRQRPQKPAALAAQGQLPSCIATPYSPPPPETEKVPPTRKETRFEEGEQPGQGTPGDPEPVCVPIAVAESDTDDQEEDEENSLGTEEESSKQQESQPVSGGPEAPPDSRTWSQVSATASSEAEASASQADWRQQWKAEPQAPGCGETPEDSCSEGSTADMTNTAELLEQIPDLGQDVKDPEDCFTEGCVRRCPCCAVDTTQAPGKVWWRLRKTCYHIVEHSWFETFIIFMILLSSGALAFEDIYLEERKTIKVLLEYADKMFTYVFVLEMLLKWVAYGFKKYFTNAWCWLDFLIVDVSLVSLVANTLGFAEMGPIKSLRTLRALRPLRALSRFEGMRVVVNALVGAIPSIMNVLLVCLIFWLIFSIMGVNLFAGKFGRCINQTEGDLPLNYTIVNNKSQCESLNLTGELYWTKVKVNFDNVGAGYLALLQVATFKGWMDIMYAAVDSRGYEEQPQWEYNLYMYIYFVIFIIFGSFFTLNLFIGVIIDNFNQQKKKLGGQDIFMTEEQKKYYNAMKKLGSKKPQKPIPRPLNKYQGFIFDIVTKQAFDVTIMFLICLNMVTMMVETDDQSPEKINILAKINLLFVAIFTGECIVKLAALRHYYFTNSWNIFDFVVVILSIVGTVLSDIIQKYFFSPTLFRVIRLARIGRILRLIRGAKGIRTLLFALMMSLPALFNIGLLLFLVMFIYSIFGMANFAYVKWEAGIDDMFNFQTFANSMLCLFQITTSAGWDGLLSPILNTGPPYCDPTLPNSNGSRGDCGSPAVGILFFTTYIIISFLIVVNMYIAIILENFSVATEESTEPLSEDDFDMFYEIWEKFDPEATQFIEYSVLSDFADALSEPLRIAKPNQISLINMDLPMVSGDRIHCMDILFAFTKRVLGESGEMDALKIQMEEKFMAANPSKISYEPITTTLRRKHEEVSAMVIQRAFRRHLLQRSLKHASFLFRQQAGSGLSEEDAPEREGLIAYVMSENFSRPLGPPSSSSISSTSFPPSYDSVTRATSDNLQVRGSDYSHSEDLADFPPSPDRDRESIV
T1 sequence (Q15858 whole entry): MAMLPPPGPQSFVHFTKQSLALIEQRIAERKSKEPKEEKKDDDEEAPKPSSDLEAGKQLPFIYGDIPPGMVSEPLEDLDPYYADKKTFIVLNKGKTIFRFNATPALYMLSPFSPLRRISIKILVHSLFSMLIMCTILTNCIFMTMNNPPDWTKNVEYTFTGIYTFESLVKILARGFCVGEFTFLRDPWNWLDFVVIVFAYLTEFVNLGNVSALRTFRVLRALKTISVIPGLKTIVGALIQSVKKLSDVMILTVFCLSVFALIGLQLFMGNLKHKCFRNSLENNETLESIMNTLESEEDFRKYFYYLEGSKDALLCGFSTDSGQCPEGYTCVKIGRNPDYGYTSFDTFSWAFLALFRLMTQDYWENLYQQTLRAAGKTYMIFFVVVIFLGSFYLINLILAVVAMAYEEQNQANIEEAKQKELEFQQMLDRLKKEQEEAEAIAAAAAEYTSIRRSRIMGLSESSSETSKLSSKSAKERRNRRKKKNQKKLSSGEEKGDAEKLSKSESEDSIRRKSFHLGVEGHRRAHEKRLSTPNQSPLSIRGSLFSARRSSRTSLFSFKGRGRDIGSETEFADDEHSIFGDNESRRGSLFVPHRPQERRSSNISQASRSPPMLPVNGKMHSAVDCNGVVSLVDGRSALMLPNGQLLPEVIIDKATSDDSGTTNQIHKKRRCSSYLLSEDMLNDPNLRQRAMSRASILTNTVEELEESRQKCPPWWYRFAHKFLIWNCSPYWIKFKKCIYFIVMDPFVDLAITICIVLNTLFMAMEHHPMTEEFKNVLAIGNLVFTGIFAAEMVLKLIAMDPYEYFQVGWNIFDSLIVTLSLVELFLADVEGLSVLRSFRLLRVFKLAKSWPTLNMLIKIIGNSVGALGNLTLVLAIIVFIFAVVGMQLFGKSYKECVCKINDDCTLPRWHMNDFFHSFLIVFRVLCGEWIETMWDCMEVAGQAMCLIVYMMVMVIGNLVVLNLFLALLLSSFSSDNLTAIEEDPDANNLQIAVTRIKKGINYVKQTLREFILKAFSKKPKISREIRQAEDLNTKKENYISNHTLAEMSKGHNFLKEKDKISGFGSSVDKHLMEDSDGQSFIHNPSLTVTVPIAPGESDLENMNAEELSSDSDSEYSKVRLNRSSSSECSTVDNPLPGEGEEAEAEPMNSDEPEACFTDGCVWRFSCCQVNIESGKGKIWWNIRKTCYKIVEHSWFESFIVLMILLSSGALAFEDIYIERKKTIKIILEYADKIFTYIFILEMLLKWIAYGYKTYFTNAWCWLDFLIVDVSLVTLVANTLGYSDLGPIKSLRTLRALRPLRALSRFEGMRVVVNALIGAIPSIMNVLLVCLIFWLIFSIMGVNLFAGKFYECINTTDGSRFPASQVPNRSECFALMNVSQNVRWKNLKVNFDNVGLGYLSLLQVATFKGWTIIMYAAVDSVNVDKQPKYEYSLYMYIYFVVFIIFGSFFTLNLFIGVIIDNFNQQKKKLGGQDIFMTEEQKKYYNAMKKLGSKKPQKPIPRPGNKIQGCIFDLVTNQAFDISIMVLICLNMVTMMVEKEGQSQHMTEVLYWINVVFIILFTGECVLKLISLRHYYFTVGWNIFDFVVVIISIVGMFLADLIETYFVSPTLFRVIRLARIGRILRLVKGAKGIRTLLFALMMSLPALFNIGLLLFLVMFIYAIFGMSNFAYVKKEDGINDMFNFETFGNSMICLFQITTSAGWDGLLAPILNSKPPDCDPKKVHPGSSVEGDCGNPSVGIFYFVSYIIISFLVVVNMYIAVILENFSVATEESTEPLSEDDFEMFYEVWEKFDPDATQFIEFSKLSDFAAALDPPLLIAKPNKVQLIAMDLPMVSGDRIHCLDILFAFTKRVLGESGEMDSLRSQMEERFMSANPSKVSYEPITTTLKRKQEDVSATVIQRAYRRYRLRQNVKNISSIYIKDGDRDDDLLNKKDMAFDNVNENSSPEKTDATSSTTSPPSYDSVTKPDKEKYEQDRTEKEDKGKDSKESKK

In the case of `Cc1cc2c(cc1S(=O)(=O)Nc1cccc(F)n1)oc(=O)n2[C@H](C)c1cccc(C)c1CN` [Ex19-2, 3-{(1R)-1-[2-(aminomethyl)-3-methylphenyl]ethyl}-N-(6-fluoropyridin-2-yl)-5-methyl-2-oxo-2,3-dihydro-1,3-benzoxazole-6-sulfonamide], at human Nav1.7, the IC50 is 14 nM. Also, the “ratio of Nav 1.5:Nav 1.7 potency” value at human Nav1.5 was 133.
Regarding `C[C@H](c1cccc(CN)c1)n1c(=O)oc2cc(S(=O)(=O)Nc3cccc(F)n3)c(F)cc21` [Ex19-5, 3-{(1R)-1-[3-(aminomethyl)phenyl]ethyl}-5-fluoro-N-(6-fluoropyridin-2-yl)-2-oxo-2,3-dihydro-1,3-benzoxazole-6-sulfonamide], the IC50 on human Nav1.7 is 482 nM. Besides, the “ratio of Nav 1.5:Nav 1.7 potency” value on human Nav1.5 stood at 96.
As for `C[C@H](c1cccc(CCN)c1)n1c(=O)oc2cc(S(=O)(=O)Nc3cccc(F)n3)c(F)cc21` [Ex19-11, 3-{(1R)-1-[3-(2-aminoethyl)phenyl]ethyl}-5-fluoro-N-(6-fluoropyridin-2-yl)-2-oxo-2,3-dihydro-1,3-benzoxazole-6-sulfonamide], at human Nav1.7, the IC50 worked out at 103 nM. Also, the “ratio of Nav 1.5:Nav 1.7 potency” value on human Nav1.5 was 244.
The corresponding values for `Cc1c(CCN)cccc1[C@@H](C)n1c(=O)oc2cc(S(=O)(=O)Nc3cccc(F)n3)c(F)cc21` [Ex19-12] are 154 nM and 195.
The corresponding values for `C[C@H](c1ccccc1C1CCCN1)n1c(=O)oc2cc(S(=O)(=O)Nc3cccc(F)n3)c(F)cc21` (stereo partly drawn) [Ex20-1, 5-fluoro-N-(6-fluoropyridin-2-yl)-2-oxo-3-{(1R)-1-[2-(pyrrolidin-2-yl)phenyl]ethyl}-2,3-dihydro-1,3-benzoxazole-6-sulfonamide] are 98 nM and 120.
The matching figures for `Cc1cccc([C@@H](C)n2c(=O)oc3cc(S(=O)(=O)Nc4cccc(F)n4)c(F)cc32)c1C1CCCN1` (stereo partly drawn) [Ex20-2, 5-fluoro-N-(6-fluoropyridin-2-yl)-3-{(1R)-1-[3-methyl-2-(pyrrolidin-2-yl)phenyl]ethyl}-2-oxo-2,3-dihydro-1,3-benzoxazole-6-sulfonamide]: 35 nM and 272.
Consider `C[C@H](c1cccc(C2CCCN2)c1)n1c(=O)oc2cc(S(=O)(=O)Nc3cccc(F)n3)c(F)cc21` (stereo partly drawn) [Ex20-3, 5-fluoro-N-(6-fluoropyridin-2-yl)-2-oxo-3-{(1R)-1-[3-(pyrrolidin-2-yl)phenyl]ethyl}-2,3-dihydro-1,3-benzoxazole-6-sulfonamide], for which the IC50 on human Nav1.7 worked out at 243 nM. Besides, the “ratio of Nav 1.5:Nav 1.7 potency” value at human Nav1.5 is listed as 218.
The matching figures for `C[C@H](c1cccc(C#CC(C)(C)N)c1)n1c(=O)oc2cc(S(=O)(=O)Nc3cccc(F)n3)c(F)cc21` [Ex21-1, 3-{(1R)-1-[3-(3-amino-3-methylbut-1-yn-1-yl)phenyl]ethyl}-5-fluoro-N-(6-fluoropyridin-2-yl)-2-oxo-2,3-dihydro-1,3-benzoxazole-6-sulfonamide]: 229 nM and 151.
As for `CNCC#Cc1cccc([C@@H](C)n2c(=O)oc3cc(S(=O)(=O)Nc4cccc(F)n4)c(F)cc32)c1` [Ex21-2, 5-fluoro-N-(6-fluoropyridin-2-yl)-3-[(1R)-1-{3-[3-(methylamino)prop-1-yn-1-yl]phenyl}ethyl]-2-oxo-2,3-dihydro-1,3-benzoxazole-6-sulfonamide], the IC50 on human Nav1.7 worked out at 245 nM. Further, the “ratio of Nav 1.5:Nav 1.7 potency” value at human Nav1.5 was 122.
Consider `C[C@H](c1cccc(C#CCN(C)C)c1)n1c(=O)oc2cc(S(=O)(=O)Nc3cccc(F)n3)c(F)cc21` [Ex21-3, 3-[(1R)-1-{3-[3-(dimethylamino)prop-1-yn-1-yl]phenyl}ethyl]-5-fluoro-N-(6-fluoropyridin-2-yl)-2-oxo-2,3-dihydro-1,3-benzoxazole-6-sulfonamide], for which the IC50 on human Nav1.7 is 808 nM. Besides, the “ratio of Nav 1.5:Nav 1.7 potency” value on human Nav1.5 turned out to be 37.

Values taken from patent publication US9624208B2, “Benzoxazolinone compounds with selective activity in voltage-gated sodium channels” (Merck Sharp & Dohme Corp., priority 2012, dated 2017).
